Data from US10689331B2, “IDO inhibitors” (Bristol-Myers Squibb Company, priority 2015, dated 2020).

The molecules below were run against T1, human IDO1 (Homo sapiens, UniProt P14902) (assay: HEK Human IDO-1 inhibition assay (kynurenine readout, Ehrlich reagent, absorbance 490 nm)). Conditions: human IDO1/HEK293 cells, incubated 20 hours with compound; 500 nM reference standard = 100% inhibition.
T1 construct: expressed in transfected cells
Type: cell-based
Procedure, shortened: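 HEK293 cells stably expressing human IDO1, treated with compound for 20 h at 37 °C in phenol red-free RPMI/10% FBS. Kynurenine detected after TCA (0.2% final, 50 °C, 30 min) by Ehrlich reagent absorbance at 490 nm; IC50 normalised to 500 nM reference standard (100%) and DMSO (0%).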

T1 sequence (P14902 whole entry): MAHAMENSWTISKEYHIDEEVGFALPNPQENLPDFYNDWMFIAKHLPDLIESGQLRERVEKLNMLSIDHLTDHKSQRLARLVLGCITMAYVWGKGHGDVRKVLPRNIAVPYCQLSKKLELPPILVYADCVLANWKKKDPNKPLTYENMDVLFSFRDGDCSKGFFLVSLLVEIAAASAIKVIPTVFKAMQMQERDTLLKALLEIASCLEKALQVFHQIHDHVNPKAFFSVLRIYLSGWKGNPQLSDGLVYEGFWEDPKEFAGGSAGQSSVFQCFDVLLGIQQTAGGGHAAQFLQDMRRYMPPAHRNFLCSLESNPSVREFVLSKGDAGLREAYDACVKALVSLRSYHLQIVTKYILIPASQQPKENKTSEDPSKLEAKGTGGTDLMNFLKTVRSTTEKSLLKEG

Question: `COc1ccc(NC(=O)Nc2cc(OCC(=O)O)ccc2N(CC(C)C)C2CCCCC2)c(F)c1` [Example 25, 2-(4-(cyclohexyl(isobutyl)amino)-3-(3-(2-fluoro-4-methoxyphenyl)ureido)phenoxy)acetic acid] was tested. Which IC50 did it give?
Answer: < 5 nM

Question: For `CC(C)CN(c1ccc(OCC(=O)O)cc1NC(=O)Nc1cccc(Cl)c1F)C1CCCCC1` [Example 26, 2-(3-(3-(3-chloro-2-fluorophenyl)ureido)-4-(cyclo-hexyl(isobutyl)amino)phenoxy) acetic acid], which IC50 is on record?
Answer: ≥ 100 nM

Question: For `CC(C)CN(c1ccc(OCC(=O)O)cc1NC(=O)Nc1cccc(C(F)(F)F)c1F)C1CCCCC1` [Example 27, 2-(4-(cylclohexyl(isobutyl)amino)-3-(3-(2-fluoro-3-(trifluoromethyl)phenyl)ureido)phenoxy)acetic acid], which IC50 is on record?
Answer: ≥ 100 nM

Question: For `Cc1c(F)cccc1NC(=O)Nc1cc(OCC(=O)O)ccc1N(CC(C)C)C1CCCCC1` [Example 28, 2-(4-(cyclohexyl(isobutyl)amino)-3-(3-(3-fluoro-2-methylphenyl)ureido)phenoxy)acetic acid], which IC50 is on record?
Answer: ≥ 100 nM

Question: Which IC50 does the source give for `COc1cc(F)c(NC(=O)Nc2cc(OCC(=O)O)ccc2N(CC(C)C)C2CCCCC2)cc1F` [Example 29, 2-(4-(cyclohexyl(isobutyl)amino)-3-(3-(2,5-difluoro-4-methoxy-phenyl)ureido)phenoxy)acetic acid] here?
Answer: < 100 nM

Question: For `Cc1ccc(F)cc1NC(=O)Nc1cc(OCC(=O)O)ccc1N(CC(C)C)C1CCCCC1` [Example 30, 2-(4-(cyclohexyl(isobutyl)amino)-3-(3-(5-fluoro-2-methylphenyl)ureido)phenoxy)acetic acid], which IC50 is on record?
Answer: ≥ 100 nM

Question: How did the IC50 turn out when `CC(C)CN(c1ccc(OCC(=O)O)cc1NC(=O)Nc1ccc(F)c(F)c1)C1CCCCC1` [Example 31, 2-(4-(cyclohexyl(isobutyl)amino)-3-(3-(3,4-difluorophenyl)ureido)phenoxy)acetic acid] was run?
Answer: < 100 nM

Question: For `CC(C)CN(c1ccc(OCC(=O)O)cc1NC(=O)Nc1cc(F)cc(F)c1)C1CCCCC1` [Example 32, 2-(4-(cyclohexyl(isobutyl)amino)-3-(3-(3,5-difluorophenyl)ureido)phenoxy)acetic acid], which IC50 is on record?
Answer: ≥ 100 nM

Question: For `Cc1ccc(NC(=O)Nc2cc(OCC(=O)O)ccc2N(CC(C)C)C2CCCCC2)cc1F` [Example 33, 2-(4-(cyclohexyl(isobutyl)amino)-3-(3-(3-fluoro-4-methylphenyl)ureido)phenoxy)acetic acid], which IC50 is on record?
Answer: < 100 nM

Question: How did the IC50 turn out when `COc1ccc(NC(=O)Nc2cc(OCC(=O)O)ccc2N(CC(C)C)C2CCCCC2)cc1F` [Example 34, 2-(4-(cyclohexyl(isobutyl)amino)-3-(3-(3-fluoro-4-methoxyphenyl)ureido)phenoxy) acetic acid] was run?
Answer: ≥ 100 nM

Question: For `CC(C)CN(c1ccc(OCC(=O)O)cc1NC(=O)Nc1ccc(C(F)(F)F)c(F)c1)C1CCCCC1` [Example 35, 2-(4-(cyclohexyl(isobutyl)amino)-3-(3-(3-fluoro-4-(trifluoromethyl)phenyl)ureido)phenoxy)acetic acid], which IC50 is on record?
Answer: ≥ 100 nM

Question: How did the IC50 turn out when `CC(C)CN(c1ccc(OCC(=O)O)cc1NC(=O)Nc1ccc(Cl)c(F)c1)C1CCCCC1` [Example 36, 2-(3-(3-(4-chloro-3-fluorophenyl)ureido)-4-(cyclohexyl(isobutyl)amino)phenoxy)acetic acid] was run?
Answer: < 100 nM

Question: `CC(C)CN(c1ccc(OCC(=O)O)cc1NC(=O)Nc1cc(F)cc(Cl)c1)C1CCCCC1` [Example 37, 2-(3-(3-(3-chloro-5-fluorophenyl)ureido)-4-(cyclo-hexyl(isobutyl)amino)phenoxy) acetic acid] was tested. Which IC50 did it give?
Answer: ≥ 100 nM

Question: How did the IC50 turn out when `Cc1cc(F)ccc1NC(=O)Nc1cc(OCC(=O)O)ccc1N(CC(C)C)C1CCCCC1` [Example 38, 2-(4-(cyclohexyl(isobutyl)amino)-3-(3-(4-fluoro-2-methylphenyl)ureido)phenoxy) acetic acid] was run?
Answer: ≥ 100 nM

Question: `CC(C)CN(c1ccc(OCC(=O)O)cc1NC(=O)Nc1ccc(C#N)cc1)C1CCCCC1` [Example 39, 2-(3-(3-(4-cyanophenyl)ureido)-4-(cyclohexyl(isobutyl)amino)phenoxy)acetic acid] was tested. Which IC50 did it give?
Answer: ≥ 100 nM

Question: How did the IC50 turn out when `Cc1ccc(N(C)C(=O)Nc2cc(OCC(=O)O)ccc2N(CC(C)C)C2CCCCC2)cc1` [Example 40, 2-(4-(cyclohexyl(isobutyl)amino)-3-(3-methyl-3-(p-tolyl)ureido)phenoxy)acetic acid] was run?
Answer: ≥ 100 nM

Question: `CC(C)CN(c1ccc(OCC(=O)O)cc1NC(=O)N(C)c1ccc(F)cc1)C1CCCCC1` [Example 41, 2-(4-(cyclohexyl(isobutyl)amino)-3-(3-(4-fluorophenyl)-3-methyl-ureido)phenoxy)acetic acid] was tested. Which IC50 did it give?
Answer: ≥ 100 nM

Question: For `CCOC(=O)COc1ccc(N(CC(C)C)C2CCCCC2)c(NC(=O)Nc2ccc(Cl)cc2F)c1` [Example 42, ethyl 2-(3-(3-(4-chloro-2-fluorophenyl)ureido)-4-(cyclohexyl(isobutyl)amino)phenoxy)acetate], which IC50 is on record?
Answer: < 5 nM

Question: With `CC(C)CN(c1ccc(OCC(=O)O)cc1NC(=O)Nc1ccc(C#N)cc1F)C1CCCCC1` [Example 43, 2-(3-(3-(4-cyano-2-fluorophenyl)ureido)-4-(cyclohexyl(isobutyl)amino)phenoxy)acetic acid] as the molecule, how does the IC50 read?
Answer: < 5 nM

Question: Which IC50 does the source give for `CC(C)CN(c1ccc(OCC(=O)O)cc1Nc1nc2ccccc2o1)C1CCCCC1` [Example 44, 2-(3-(benzo[d]oxazol-2-ylamino)-4-(cyclohexyl(isobutyl)amino)phenoxy)acetic acid] here?
Answer: ≥ 100 nM

Question: `CC(C)CN(c1ccc(OCC(=O)O)cc1N(C)C(=O)Nc1ccc(Cl)cc1F)C1CCCCC1` [Example 45] was tested. Which IC50 did it give?
Answer: ≥ 100 nM

Question: Which IC50 does the source give for `CC(C)CN(c1ccc(OCC(=O)NS(=O)(=O)N(C)C)cc1NC(=O)Nc1ccc(Cl)cc1F)C1CCCCC1` [Example 46, 2-(3-(3-(4-chloro-2-fluorophenyl)ureido)-4-(cyclohexyl(isobutyl)amino)phenoxy)-N—(N,N-dimethylsulfamoyl)acetamide] here?
Answer: < 5 nM

Question: Which IC50 does the source give for `CC(C)CN(c1ccc(OCC(=O)NS(=O)(=O)C2CC2)cc1NC(=O)Nc1ccc(Cl)cc1F)C1CCCCC1` [Example 47, 2-(3-(3-(4-chloro-2-fluorophenyl)ureido)-4-(cyclohexyl (isobutyl)amino)phenoxy)-N-(cyclopropyl-sulfonyl)acetamide] here?
Answer: < 5 nM

Question: For `CC(C)CN(c1ccc(OCC(=O)NS(=O)(=O)C(C)(C)C)cc1NC(=O)Nc1ccc(Cl)cc1F)C1CCCCC1` [Example 48, N-(tert-butylsulfonyl)-2-(3-(3-(4-chloro-2-fluorophenyl)ureido)-4-(cyclohexyl(isobutyl)amino)phenoxy) acetamide], which IC50 is on record?
Answer: < 5 nM

Question: `CC(C)CN(c1ccc(OCC(=O)NS(=O)(=O)c2cccs2)cc1NC(=O)Nc1ccc(Cl)cc1F)C1CCCCC1` [Example 49] was tested. Which IC50 did it give?
Answer: < 5 nM

Question: With `Cc1cc(NC(=O)Nc2cc(OCC(=O)NS(=O)(=O)C3CC3)ccc2N(CC(C)C)C2CCCCC2)no1` [Example 50, 2-(4-(cyclohexyl(isobutyl)amino)-3-(3-(5-methyl-isoxazol-3-yl)ureido)phenoxy)-N-(cyclopropylsulfonyl)acetamide] as the molecule, how does the IC50 read?
Answer: ≥ 100 nM

Question: How did the IC50 turn out when `CC(C)CN(c1ccc(OCC(=O)NS(=O)(=O)N(C)C)cc1NC(=O)Nc1ccccc1F)C1CCCCC1` [Example 51, 2-(4-(cyclohexyl(isobutyl)amino)-3-(3-(2-fluoro-phenyl)ureido)phenoxy)-N—(N,N-dimethylsulfamoyl)acetamide] was run?
Answer: < 5 nM
